Assays:
[1] = Dissolution test of poorly-soluble substances using distilled water; assay type: physicochemical
[2] = Dissolution test of poorly-soluble substances using 2nd fluid for disintegration test (pH 6.8) of the Japanese Pharmacopoeia; assay type: physicochemical
Description: From initiation of the test, the mixed solution was stirred with a stirrer having a length of 15 mm. The rotation number of the stirrer was 120 rpm, and all of the tests were conducted in a thermostat at 37±0.5° C. Two types of test solutions, namely, distilled water and 2nd fluid for disintegration test (pH 6.8) of the Japanese Pharmacopoeia were used. As such 2nd fluid for disintegration test of the Japanese Pharmacopoeia, a solution prepared by diluting the 10-fold concentration solution of Kanto Kagaku Co., Ltd. with distilled water was used.
A comparative test was carried out in the same manner as that described above with the exception that a poorly-soluble substance or the like was used in an amount equal to that of a substance with improved aqueous solubility, instead of the substance with improved aqueous solubility.
1 mL of the solution was sampled in an Eppendorf centrifuge tube, 1, 3, 10, 30, 60, 180 and 360 minutes after initiation of the test. The thus sampled solution was centrifuged at 12,000 rpm for 5 minutes. […] In the case of the comparative test, the poorly-soluble substance or the like, which had not been dissolved in the solution, was removed. An aliquot of this supernatant was immediately frozen. The frozen sample was freeze-dried, and it was then used as a sample in the measurement of the amount of the substance with improved aqueous solubility, which had been dissolved in the test solution. The dissolved poorly-soluble substance was measured mainly using a dual wavelength absorption photometer.

[3] = after dissolution test for 360 minutes, distilled water, 37±0.5° C.
[4] = 2nd fluid for disintegration test, elution time 1 min
[5] = 2nd fluid for disintegration test, elution time 3 min
[6] = 2nd fluid for disintegration test, elution time 10 min
[7] = 2nd fluid for disintegration test, elution time 30 min
[8] = 2nd fluid for disintegration test, elution time 180 min
[9] = 2nd fluid for disintegration test, elution time 360 min
[10] = after dissolution test for 360 minutes, Second disintegration test medium (pH 6.8), 37±0.5° C.
[11] = 2nd fluid for disintegration test, elution time 120 min

Dissolved amount ([1]; water, elution time 1 min) | Dissolved amount ([1]; water, elution time 3 min) | Dissolved amount ([1]; water, elution time 10 min) | Dissolved amount ([1]; water, elution time 30 min) | Dissolved amount ([1]; water, elution time 60 min) | Dissolved amount ([1]; water, elution time 180 min) | Dissolved amount ([1]; water, elution time 360 min) | Dissolved amount [2, 4] | Dissolved amount [2, 5] | Dissolved amount [2, 6] | Dissolved amount [2, 7] | Dissolved amount [2, 9] | Dissolved amount ([1]; water, elution time 120 min) | Dissolved amount [2, 11] | SMILES | other results
0.6 µg/mL | 0.6 µg/mL | 0.7 µg/mL | 0.9 µg/mL | 1.0 µg/mL | 1.1 µg/mL | 1.2 µg/mL | 1.4 µg/mL | 1.4 µg/mL | 1.8 µg/mL | 1.0 µg/mL | 2.8 µg/mL |  |  | CC(=O)O[C@]1(C(C)=O)CC[C@H]2[C@@H]3C=C(Cl)C4=CC(=O)CC[C@]4(C)[C@H]3CC[C@@]21C [Comparative Example 3-2, Chlormadinone acetate] | Dissolved amount [1, 3]: 1.2 µg/mL; Dissolved amount ([2]; 2nd fluid for disintegration test, elution time 60 min): 1.0 µg/mL; Dissolved amount [2, 8]: 2.3 µg/mL; Dissolved amount [2, 10]: 2.8 µg/mL
 |  |  |  |  |  |  |  |  |  |  |  |  |  | C[C@]12C=CC(=O)C=C1CC[C@@H]1[C@@H]2[C@@H](O)C[C@@]2(C)[C@H]1CC[C@]2(O)C(=O)CO [compound 41, Prednisolone] | Dissolved amount ([1]; Prednisolone, water, elution time 10 min): 336.3 µg/mL; Dissolved amount ([1]; Prednisolone, water, elution time 30 min): 315.8 µg/mL; Dissolved amount ([1]; Prednisolone, water, elution time 120 min): 268.2 µg/mL; Dissolved amount ([1]; Prednisolone, water, elution time 360 min): 266.3 µg/mL; Dissolved amount ([2]; Prednisolone, 2nd fluid for disintegration test, elution time 3 min): 369.1 µg/mL; Dissolved amount ([2]; Prednisolone, 2nd fluid for disintegration test, elution time 10 min): 382.4 µg/mL; Dissolved amount ([2]; Prednisolone, 2nd fluid for disintegration test, elution time 30 min): 310.8 µg/mL; Dissolved amount ([2]; Prednisolone, 2nd fluid for disintegration test, elution time 120 min): 265.5 µg/mL; Dissolved amount ([2]; Prednisolone, 2nd fluid for disintegration test, elution time 360 min): 257.9 µg/mL
2668.0 µg/mL | 4621.4 µg/mL |  | 6792.2 µg/mL | 7374.5 µg/mL | 8826.1 µg/mL | 8948.1 µg/mL | 5113.7 µg/mL | 7012.3 µg/mL | 9096.3 µg/mL |  |  |  |  | CC1(C)[C@@H](O[C@H]2O[C@H](C(=O)O)[C@@H](O)[C@H](O)[C@H]2O[C@@H]2O[C@H](C(=O)O)[C@@H](O)[C@H](O)[C@H]2O)CC[C@]2(C)[C@H]3C(=O)C=C4[C@@H]5C[C@@](C)(C(=O)O)CC[C@]5(C)CC[C@@]4(C)[C@]3(C)CC[C@@H]12 [Comparative Example 16, Ammonium Glycyrrhizinate] | 
1831.9 µg/mL | 2934.9 µg/mL | 2985.3 µg/mL |  | 3105.7 µg/mL | 3108.1 µg/mL | 3110.4 µg/mL | 252.7 µg/mL | 1020.4 µg/mL | 5352.3 µg/mL | 5963.6 µg/mL | 8552.7 µg/mL |  |  | CC(=O)Oc1ccccc1C(=O)O [Comparative Example 1-3, Aspirin] | Dissolved amount [1, 3]: 3110.4 µg/mL; Dissolved amount [2, 8]: 6458.1 µg/mL; Dissolved amount [2, 10]: 6552.7 µg/mL
 | 1040.6 µg/mL | 1238.7 µg/mL | 1244.8 µg/mL |  |  | 1212.0 µg/mL |  | 1331.6 µg/mL |  |  | 1654.9 µg/mL | 1251.4 µg/mL | 1721.6 µg/mL | CC(=O)Nc1nnc(S(N)(=O)=O)s1 [compound 23, Acetazolamide] | 
 |  |  |  |  |  |  |  |  |  |  |  |  |  | CC(=O)S[C@@H]1CC2=CC(=O)CC[C@]2(C)[C@H]2CC[C@@]3(C)[C@@H](CC[C@@]34CCC(=O)O4)[C@H]12 [compound 34, Spironolactone] | Dissolved amount ([1]; Spironolactone, water, elution time 3 min): 29.6 µg/mL; Dissolved amount ([1]; Spironolactone, water, elution time 10 min): 31.9 µg/mL; Dissolved amount ([1]; Spironolactone, water, elution time 30 min): 33.7 µg/mL; Dissolved amount ([1]; Spironolactone, water, elution time 120 min): 39.7 µg/mL; Dissolved amount ([1]; Spironolactone, water, elution time 360 min): 35.2 µg/mL; Dissolved amount ([2]; Spironolactone, 2nd fluid for disintegration test, elution time 3 min): 71.0 µg/mL; Dissolved amount ([2]; Spironolactone, 2nd fluid for disintegration test, elution time 10 min): 85.6 µg/mL; Dissolved amount ([2]; Spironolactone, 2nd fluid for disintegration test, elution time 30 min): 89.3 µg/mL; Dissolved amount ([2]; Spironolactone, 2nd fluid for disintegration test, elution time 120 min): 92.0 µg/mL; Dissolved amount ([2]; Spironolactone, 2nd fluid for disintegration test, elution time 360 min): 93.7 µg/mL
 | 7.8 µg/mL | 7.9 µg/mL | 8.0 µg/mL |  |  | 8.2 µg/mL |  | 627.9 µg/mL | 693.7 µg/mL | 821.8 µg/mL | 1114.4 µg/mL | 8.5 µg/mL | 928.5 µg/mL | COc1ccc2c(c1)c(CC(=O)O)c(C)n2C(=O)c1ccc(Cl)cc1 [compound 20, Indomethacin] | 
 |  |  |  |  |  |  |  |  |  |  |  |  |  | CCN(CC)CCNC(=O)c1cc(Cl)c(N)cc1OC [compound 33, Metoclopramide] | Dissolved amount ([1]; Metoclopramide, water, elution time 3 min): 6159.5 µg/mL; Dissolved amount ([1]; Metoclopramide, water, elution time 10 min): 5382.3 µg/mL; Dissolved amount ([1]; Metoclopramide, water, elution time 30 min): 5437.6 µg/mL; Dissolved amount ([1]; Metoclopramide, water, elution time 120 min): 5478.0 µg/mL; Dissolved amount ([1]; Metoclopramide, water, elution time 360 min): 5654.9 µg/mL; Dissolved amount ([2]; Metoclopramide, 2nd fluid for disintegration test, elution time 3 min): 12420.8 µg/mL; Dissolved amount ([2]; Metoclopramide, 2nd fluid for disintegration test, elution time 30 min): 13285.5 µg/mL; Dissolved amount ([2]; Metoclopramide, 2nd fluid for disintegration test, elution time 360 min): 13564.1 µg/mL
 | 2973.2 µg/mL | 3880.0 µg/mL | 4558.1 µg/mL |  |  | 6207.6 µg/mL |  | 4613.3 µg/mL | 5425.9 µg/mL | 5825.0 µg/mL | 6133.3 µg/mL | 6034.2 µg/mL | 7003.0 µg/mL | CCS(=O)(=O)CCn1c([N+](=O)[O-])cnc1C [compound 25, Tinidazole] | 
